Entries after “also recorded” stand apart in the source; their conditions may differ.
Target: T1, CRM-1 export receptor (Mus musculus, UniProt Q6P5F9)
T1 construct: NIH-3T3 cells were transfected with the indicated GFP reporter constructs; endogenous in cells; host or cells: NIH-3T3
Test: Leptomycin B Nuclear Export Signal Assay (GFP reporter localization by confocal microscopy)
Type: cell-based
Conditions: NIH-3T3 cells, 24 hrs post-transfection, 200 nM Leptomycin B for 2 hrs
Method: The Leptomycin B Nuclear Export Signal Assay used NIH-3T3 cells grown on glass coverslips (Fisher) and transfected using Lipofectamine 2000 according to the manufacturers protocol. Cells 24 hrs post-transfection were treated with 200 nM Leptomycin B (Sigma) or DMSO (Mock) for 2 hrs. Cells were fixed with 3% PFA and mounted using ProLong (Molecular Probes) mounting medium. Confocal microscopy was performed on a Zeiss LSM 510 confocal system using an Axiovert 100 M microscope and a Plan/Apochromat 100×/Oil objective.

T1 sequence (Q6P5F9 whole entry): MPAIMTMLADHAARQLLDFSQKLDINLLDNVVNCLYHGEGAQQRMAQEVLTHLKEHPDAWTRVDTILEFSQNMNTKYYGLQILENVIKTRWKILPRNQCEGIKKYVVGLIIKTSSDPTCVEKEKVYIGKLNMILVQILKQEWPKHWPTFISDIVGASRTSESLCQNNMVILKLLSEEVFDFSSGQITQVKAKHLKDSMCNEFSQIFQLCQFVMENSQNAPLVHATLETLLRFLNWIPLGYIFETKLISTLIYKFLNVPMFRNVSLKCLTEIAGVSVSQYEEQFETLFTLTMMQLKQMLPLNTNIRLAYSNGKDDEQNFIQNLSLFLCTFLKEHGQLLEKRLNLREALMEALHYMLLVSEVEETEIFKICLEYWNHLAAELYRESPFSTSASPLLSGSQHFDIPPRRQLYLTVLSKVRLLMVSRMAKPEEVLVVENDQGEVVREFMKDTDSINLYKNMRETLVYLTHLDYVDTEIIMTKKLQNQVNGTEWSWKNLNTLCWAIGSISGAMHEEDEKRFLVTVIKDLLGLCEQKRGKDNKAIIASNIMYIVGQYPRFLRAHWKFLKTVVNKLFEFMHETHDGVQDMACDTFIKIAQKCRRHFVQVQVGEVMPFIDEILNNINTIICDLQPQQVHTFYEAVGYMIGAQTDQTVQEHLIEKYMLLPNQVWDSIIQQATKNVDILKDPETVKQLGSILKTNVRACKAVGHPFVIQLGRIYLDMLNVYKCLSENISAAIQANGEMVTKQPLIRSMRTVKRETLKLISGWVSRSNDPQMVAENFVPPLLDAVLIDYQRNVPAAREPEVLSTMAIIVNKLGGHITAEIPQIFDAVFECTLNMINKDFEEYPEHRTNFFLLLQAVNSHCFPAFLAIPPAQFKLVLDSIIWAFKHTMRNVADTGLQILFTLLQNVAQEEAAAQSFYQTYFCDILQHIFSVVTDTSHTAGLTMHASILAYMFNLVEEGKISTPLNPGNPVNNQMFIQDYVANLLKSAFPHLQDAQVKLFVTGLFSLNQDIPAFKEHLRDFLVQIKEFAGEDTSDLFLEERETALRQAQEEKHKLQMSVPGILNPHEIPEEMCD

CCC(=C/[C@H](C)C/C=C/C(C)=C/[C@@H](C)C(=O)[C@@H](C)[C@H](O)[C@@H](C)C/C(C)=C/C(=O)O)/C=C/[C@@H]1OC(=O)C=C[C@@H]1C [LMB, Leptomycin B]
effect on localization of GFP or NLS-GFP: unaffected
effect on nuclear exclusion (cytoplasmic localization) of Htt 1-17-NLS-GFP: unaffected; also recorded: no effect
effect on nuclear exclusion of control NES-GFP: quite sensitive; also recorded: efficiently reversed
